# Reference: US20240409536A1, “COMPOUNDS AND METHODS FOR MODULATING SPLICING” (REMIX THERAPEUTICS INC., priority 2021, published 2024)
# Like-named read-outs stand apart in the source and are kept apart here.
# What was measured:
# HTT mRNA = test: Gene panel canonical junction qPCR assay, HTT CJ mRNA decrease; assay type: cell-based, human; details: decrease in CJ mRNA levels, read-out: HTT IC50
# Description: (§1) Compounds described herein were used to modulate RNA transcript abundance in cells. The expression of a target mRNA was measured by detecting the formation of an exon-exon junction in the canonical transcript (CJ). A compound mediated exon-inclusion event was detected by observing an increase in formation of a new junction with an alternative exon (AJ). Real-time qPCR assays were used to detect these splicing switches and interrogate the potency of various compounds towards different target genes. A high-throughput real time quantitative PCR (RT-qPCR) assay was developed to measure these two isoforms of the mRNA (CJ and AJ) for exemplary genes, such as HTT, SMN2, and MYB, together with a control housekeeping gene, GAPDH or GUSB or PPIA, used for normalization. Briefly, the A673 or K562 cell line was treated with various compounds described herein (e.g., compounds of Formula (I), (I), or (III)). After treatment, the levels of the HTT, MYB, or SMN2 mRNA targets were determined from each sample of cell lysate by cDNA synthesis followed by qPCR.
# (§2) The data analysis was performed by first determining the ΔCt vs the housekeeper gene. This ΔCt was then normalized against the DMSO control (ΔΔCt) and converted to RQ (relative quantification) using the 2^(−ΔΔCt) equation. The RQ were then converted to a percentage response by arbitrarily setting an assay window of 3.5 and 4.0 ΔCt for HTT-CJ and MYB-CJ respectively and an assay window of 9 and 3 ΔCt for HTT-AJ and MYB-AJ in 96 well format (50,000 K562 cells/well and 15,000 A673 cells per well) and an assay window of 3 and 4 ΔCt for HTT-CJ and MYB-CJ respectively and an assay window of 5 and 3 ΔCt for HTT-AJ and MYB-AJ respectively in 384 well format (8,000 K562 cells/well example). […] The percentage response was then fitted to the 4 parametric logistic equation to evaluate the concentration dependence of compound treatment. The increase in AJ mRNA is reported as AC50 (compound concentration having […] in AJ increase) while the decrease in CJ mRNA levels is reported as IC50 (compound concentration having 50) response in CJ decrease).
# (§3) Additional studies were carried out for a larger panel of genes using the protocol provided above. The junction between flanking upstream and downstream exons was used to design canonical junction qPCR assays. At least one of the forward primer, reverse primer or the CY5-labeled 5′ nuclease probe (with 3′ quencher such as ZEN/Iowa Black FQ) was designed to overlap with the exon junction to capture the CJ mRNA transcript. BLAST was used to confirm the specificity of the probeset and parameters such as melting temperature, GC content, amplicon size, and primer dimer formation are considered during their design. Data for the decrease in CJ mRNA levels for four exemplary genes (HTT, SMN2, MYB, and Target C) analyzed in this panel are reported as IC50 (compound concentration having […] in CJ decrease).
# (§4) A summary of the results from the panel is illustrated in Tables 5A and 51B, wherein “A” represents an IC50 of less than 100 nM; “B” represents an IC50 of between 100 nM and 1 μM; and “C” represents an IC50 of between 1 μM and 10 μM; and “D” represents an IC50 of greater than 10 μM.
# SMN2 mRNA = test: Gene panel canonical junction qPCR assay, SMN2 CJ mRNA decrease; assay type: cell-based, human; details: decrease in CJ mRNA levels, read-out: SMN2 IC50
# Description: as §1, §2, §3, §4
# MYB mRNA = test: Gene panel canonical junction qPCR assay, MYB CJ mRNA decrease; assay type: cell-based, human; details: decrease in CJ mRNA levels, read-out: MYB IC50
# Description: as §1, §2, §3, §4
# Target C mRNA = test: Gene panel canonical junction qPCR assay, Target C CJ mRNA decrease; assay type: cell-based; details: Homo sapiens, decrease in CJ mRNA levels, read-out: Target C IC50
# Description: as §1, §2, §3, §4
Compound,IC50 (HTT mRNA; Homo sapiens),IC50 (SMN2 mRNA; Homo sapiens),IC50 (MYB mRNA; Homo sapiens),IC50 (HTT mRNA),IC50 (SMN2 mRNA),IC50 (MYB mRNA),IC50 (Target C mRNA)
Cc1nc2c(F)cc(NC(=O)c3sc(N4CCNC(C)C4)cc3F)cc2s1 (stereo not drawn) [Compound 638],> 10000 nM,< 0.1 µM,> 10000 nM,,,,
Cc1cn2cc(NC(=O)c3sc(C4CCNCC4)c(C)c3F)cc(F)c2n1 [Compound 649],100 to 1000 nM,1 to 10 µM,100 to 1000 nM,,,,
Cc1cn2cc(NC(=O)c3sc(C4CCNCC4)cc3F)cc(F)c2n1 [Compound 650],,,,1000 to 10000 nM,> 10 µM,100 to 1000 nM,
Cc1cn2cc(NC(=O)c3sc(C4CCNCC4)cc3F)cc(Cl)c2n1 [Compound 654],100 to 1000 nM,1 to 10 µM,1000 to 10000 nM,,,,
Cn1cc2ccc(NC(=O)c3sc(C4CCNCC4)cc3F)cc2n1 [Compound 655],100 to 1000 nM,1 to 10 µM,< 100 nM,,,,
Cn1cc2c(F)cc(NC(=O)c3sc(C4CCNCC4)cc3F)cc2n1 [Compound 656],100 to 1000 nM,1 to 10 µM,< 100 nM,,,,
Cc1cn2cc(NC(=O)c3cc(F)c(C4CCNCC4)s3)cc(F)c2n1 [Compound 661],> 10000 nM,,1000 to 10000 nM,,,,> 10 µM
Cc1cn2nc(NC(=O)c3sc(C4CCNCC4)cc3F)cc2c(C)n1 [Compound 664],> 10000 nM,> 10 µM,> 10000 nM,,,,
Cc1cn2cc(NC(=O)c3cc(Cl)c(C4CCNCC4)s3)cc(F)c2n1 [Compound 666],1000 to 10000 nM,1 to 10 µM,100 to 1000 nM,,,,
Cc1cn2cc(NC(=O)c3sc(C4CCNCC4)cc3F)nc2c(C)n1 [Compound 667],> 10000 nM,> 10 µM,> 10000 nM,,,,
Cc1cn2cc(NC(=O)c3sc([C@@H]4CCN[C@H](C)C4)cc3F)cc(C(F)(F)F)c2n1 [Compound 668],> 10000 nM,> 10 µM,1000 to 10000 nM,,,,
Cc1cn2cc(NC(=O)c3sc([C@H]4CCN[C@H](C)C4)cc3F)cc(C(F)(F)F)c2n1 [Compound 669],100 to 1000 nM,> 10 µM,< 100 nM,,,,
Cc1cn2cc(NC(=O)c3sc(C4CCNCC4)c(C#N)c3Cl)cc(F)c2n1 [Compound 670],1000 to 10000 nM,> 10 µM,100 to 1000 nM,,,,
Cc1cn2cc(-c3sc(C(=O)NC4CCNCC4)c(Cl)c3C#N)cc(F)c2n1 [Compound 671],1000 to 10000 nM,> 10 µM,100 to 1000 nM,,,,
